The results in this text go back to US9938269B2, “Inhibitor compounds of phosphodiesterase type 10A” (ABBVIE INC., priority 2011, dated 2018).

The nature of data set [1]: Determination of the microsomal half-life, rat liver microsomes. The following applies: rat, liver microsomes, pH 7.4. (Liver microsomes are vesicles of endoplasmic reticulum, rich in cytochrome P450 enzymes.)
A short description of data set [2]: Determination of the microsomal half-life, human liver microsomes. As to conditions: for microsomal CLint at 0.5 μM: human, liver microsomes, pH 7.4.
For data set [3], the target named is T1, PDE10A (human) (Homo sapiens, UniProt Q9Y233).
T1 construct: purchased BPS Bioscience
Kind of data set: Measurement of PDE activity (HTRF cAMP kit), human PDE10A. Type of data set: biochemical. As to conditions: PDE enzymatic reaction, substrate 20 nM for PDE10, 60 minutes at 29 C. Put shortly: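 HTRF detection of cAMP left after hydrolysis, expressed as percent of uninhibited control to derive IC50. Reaction: serially diluted inhibitor mixed with recombinant enzyme, started with 20 nM cAMP, 60 min at 29 °C in Tris-HCl pH 7.5 buffer containing MgCl2 and BSA.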
(In TR-FRET formats the signal depends on donor and acceptor labels being close together.)

Molecules are shown by their SMILES. Structures can show the parent of a compound that is named as a salt.

T1 sequence (Q9Y233 whole entry): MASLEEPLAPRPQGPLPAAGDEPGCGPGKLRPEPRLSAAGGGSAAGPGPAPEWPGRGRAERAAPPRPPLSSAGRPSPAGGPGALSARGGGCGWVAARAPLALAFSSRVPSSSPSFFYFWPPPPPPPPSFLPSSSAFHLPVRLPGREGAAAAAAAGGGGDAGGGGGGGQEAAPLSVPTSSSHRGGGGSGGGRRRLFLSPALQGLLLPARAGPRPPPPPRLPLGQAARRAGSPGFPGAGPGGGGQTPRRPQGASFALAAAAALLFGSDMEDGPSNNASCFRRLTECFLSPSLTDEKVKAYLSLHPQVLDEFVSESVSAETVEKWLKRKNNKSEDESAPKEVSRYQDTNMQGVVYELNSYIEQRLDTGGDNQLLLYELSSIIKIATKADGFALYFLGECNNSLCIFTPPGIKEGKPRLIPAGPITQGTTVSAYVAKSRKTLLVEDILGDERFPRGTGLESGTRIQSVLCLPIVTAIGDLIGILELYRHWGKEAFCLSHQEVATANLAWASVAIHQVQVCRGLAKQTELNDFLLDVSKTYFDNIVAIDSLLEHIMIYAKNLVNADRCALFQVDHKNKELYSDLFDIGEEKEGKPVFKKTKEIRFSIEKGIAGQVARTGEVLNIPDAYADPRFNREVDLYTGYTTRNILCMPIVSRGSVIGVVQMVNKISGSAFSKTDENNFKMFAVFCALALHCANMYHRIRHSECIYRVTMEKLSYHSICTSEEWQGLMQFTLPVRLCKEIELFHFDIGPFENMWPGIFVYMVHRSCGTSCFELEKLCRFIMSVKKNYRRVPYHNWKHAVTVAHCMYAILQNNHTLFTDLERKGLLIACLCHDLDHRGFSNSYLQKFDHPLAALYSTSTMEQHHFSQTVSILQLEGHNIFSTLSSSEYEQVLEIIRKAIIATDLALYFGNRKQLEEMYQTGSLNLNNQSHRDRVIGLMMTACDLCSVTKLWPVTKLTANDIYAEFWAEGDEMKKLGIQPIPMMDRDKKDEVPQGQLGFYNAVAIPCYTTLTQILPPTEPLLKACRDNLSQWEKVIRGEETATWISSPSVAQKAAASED

For orientation: microsomal CLint means a measure of how fast metabolising enzymes remove a compound, apart from limits set by blood flow. High values mean faster metabolism, low ones greater metabolic stability. A word on the IC50: it is the concentration needed to halve the response being measured. Take `COc1ccc(N2CCOCC2)c2c1CN(CCc1cn3ccccc3n1)C2=O` [Example 264, 2-(2-Imidazo[1,2-a]pyridin-2-yl-ethyl)-4-methoxy-7-morpholin-4-yl-2,3-dihydro-isoindol-1-one trifluoroacetate]: the microsomal CLint at 0.5 μM in data set [1] and in data set [2] was under 100 µL/min/mg throughout. The compound also yielded an IC50 in data set [3] of under 100 nM.

Take `O=C1c2c(cccc2N2CCS(=O)(=O)CC2)CN1CCc1cn2ccccc2n1` [Example 234, 7-(1,1-Dioxothiomorpholin-4-yl)-2-(2-imidazo[1,2-a]pyridin-2-yl-ethyl)-2,3-dihydro-isoindol-1-one]: the intrinsic clearance (microsomal CLint) at 0.5 μM in data set [1] and in data set [2] was under 100 µL/min/mg in each case. The IC50 in data set [3] was under 100 nM.

Turning to `O=C1c2c(N3CCS(=O)(=O)CC3)ccnc2CN1CCc1nc2ccccc2s1` [compound 390, 6-[2-(1,3-Benzothiazol-2-yl)ethyl]-4-(1,1-dioxo-1,4-thiazinan-4-yl)-7H-pyrrolo[3,4-b]pyridin-5-one trifluoroacetate], the microsomal CLint at 0.5 μM is 100 to 220 µL/min/mg in data set [1] and under 100 µL/min/mg in data set [2]. The compound also yielded an IC50 in data set [3] of under 100 nM.

For `O=C1c2c(N3CCOCC3)ccnc2CN1CCc1cnc2ccccc2n1` [compound 495, 4-Morpholino-6-(2-quinoxalin-2-ylethyl)-7H-pyrrolo[3,4-b]pyridin-5-one trifluoroacetate], the microsomal CLint at 0.5 μM in data set [1] and in data set [2] was under 100 µL/min/mg throughout. For the same compound, in data set [3], the IC50 is under 100 nM.

Consider `O=C1c2c(N3CCOCC3)ccnc2CN1CCc1cn2ccsc2n1` [compound 425, 6-(2-Imidazo[2,1-b]thiazol-6-ylethyl)-4-morpholino-7H-pyrrolo[3,4-b]pyridin-5-one], for which the microsomal CLint at 0.5 μM in data set [1] is under 100 µL/min/mg. Moreover, the “Human mCl (mikrosomal clearance)” value in data set [2] (human liver microsomes, 0.5 μM test substance, 0.25 mg microsomal protein, pH 7.4, 37° C., NADPH) is reported as “◯”. Besides, in data set [3], the IC50 is under 100 nM.

Consider `O=C1c2c(cccc2-c2ccc(F)cc2)CN1CCc1cn2ccccc2n1` [Example 236, 7-(4-Fluoro-phenyl)-2-(2-imidazol[1,2-a]pyridin-2-yl-ethyl)-2,3-dihydro-isoindol-1-one], for which the microsomal CLint at 0.5 μM in data set [1] and in data set [2] was 100 to 220 µL/min/mg in each case. Also, the IC50 in data set [3] lay in the range of 200 to 500 nM.

`O=C1c2c(N3CCOCC3)ccnc2CN1CCc1ccc2ccccc2n1` [Example 119, 4-Morpholin-4-yl-6-(2-quinolin-2-yl-ethyl)-6,7-dihydro-pyrrolo[3,4-b]pyridin-5-one]: the microsomal CLint at 0.5 μM in data set [1] and in data set [2] was under 100 µL/min/mg throughout. For the same compound, the 50% inhibitory concentration (IC50) in data set [3] is under 100 nM.

Consider `Cc1ccc2c(c1)nc(CCN1Cc3nccc(-c4ccnn4C)c3C1=O)n2C` [compound 540, 6-[2-(1,5-Dimethylbenzimidazol-2-yl)ethyl]-4-(2-methylpyrazol-3-yl)-7H-pyrrolo[3,4-b]pyridin-5-one], for which the microsomal CLint at 0.5 μM in data set [1] and in data set [2] was under 100 µL/min/mg each time. This compound also returned an IC50 in data set [3] of under 100 nM.

For `COc1ccc(-c2ccc(OC)c3c2CN(CCc2cn4ccccc4n2)C3=O)cc1` [compound 457, 2-(2-Imidazo[1,2-a]pyridin-2-yl-ethyl)-7-methoxy-4-(4-methoxy-phenyl)-2,3-dihydro-isoindol-1-one trifluoroacetate], the microsomal CLint at 0.5 μM in data set [1] and in data set [2] was 100 to 220 µL/min/mg in each case. In data set [3], this compound had an IC50 of under 100 nM.

As to `Cc1cnc(CCN2Cc3nccc(-c4ccncc4)c3C2=O)c(C)c1` [compound 473, 6-[2-(3,5-Dimethyl-2-pyridyl)ethyl]-4-(4-pyridyl)-7H-pyrrolo[3,4-b]pyridin-5-one], the microsomal CLint at 0.5 μM in data set [1] and in data set [2] was 100 to 220 µL/min/mg throughout. Further, the IC50 in data set [3] lay in the range of 100 to 200 nM.

For `COc1cccc(CCN2Cc3nccc(N4CCOCC4)c3C2=O)n1` [compound 483, 6-[2-(6-Methoxy-2-pyridyl)ethyl]-4-morpholino-7H-pyrrolo[3,4-b]pyridin-5-one], the intrinsic metabolic clearance (microsomal CLint) at 0.5 μM in data set [1] and in data set [2] was under 100 µL/min/mg each time. Further, the IC50 in data set [3] is under 100 nM.

For the compound `COc1cccc(CCN2Cc3nccc(-c4ccncc4)c3C2=O)n1` [compound 553, 6-[2-(6-Methoxy-2-pyridyl)ethyl]-4-(4-pyridyl)-7H-pyrrolo[3,4-b]pyridin-5-one], the microsomal CLint at 0.5 μM in data set [1] and in data set [2] was 100 to 220 µL/min/mg in each case. Further, the IC50 in data set [3] was under 100 nM.

On to `O=C1c2c(-c3cncnc3)ccc(F)c2CN1CCc1cn2ccccc2n1` [Example 381, 4-Fluoro-2-(2-imidazo[1,2-a]pyridin-2-yl-ethyl)-7-pyrimidin-5-yl-2,3-dihydro-isoindol-1-one], for which the values for the microsomal CLint at 0.5 μM in data set [1] and in data set [2] were under 100 µL/min/mg and 100 to 220 µL/min/mg, respectively. The compound also registered an IC50 in data set [3] of under 100 nM.

As for `CC(C)c1ccc(CCN2Cc3nccc(N4CCOCC4)c3C2=O)nc1` [compound 401, 6-[2-(5-Isopropyl-2-pyridyl)ethyl]-4-morpholino-7H-pyrrolo[3,4-b]pyridin-5-one], the intrinsic metabolic clearance (microsomal CLint) at 0.5 μM in data set [1] is 100 to 220 µL/min/mg; in data set [2] it was under 100 µL/min/mg. This compound also showed an IC50 in data set [3] of under 100 nM.

As for `O=C1c2c(cccc2N2CCOCC2)CN1CCc1ccc2cc(F)ccc2n1` [Example 115, 2-[2-(6-Fluoro-quinolin-2-yl)-ethyl]-7-morpholin-4-yl-2,3-dihydro-isoindol-1-one trifluoroacetate], the microsomal CLint at 0.5 μM in data set [1] is under 100 µL/min/mg; in data set [2], 100 to 220 µL/min/mg. Besides, the IC50 in data set [3] was under 100 nM.

For the compound `COc1ccc(-c2cc[nH]n2)c2c1C(=O)N(CCc1nc3ccccc3s1)C2` [compound 400, 2-[2-(1,3-Benzothiazol-2-yl)ethyl]-7-methoxy-4-(1H-pyrazol-3-yl)isoindolin-1-one], the microsomal CLint at 0.5 μM in data set [1] is over 220 µL/min/mg; in data set [2], under 100 µL/min/mg. The compound also returned an IC50 in data set [3] of under 100 nM.

Turning to `O=C1c2c(cccc2N2CC[S+]([O-])CC2)CN1CCc1ccc2ccccc2n1` [Example 135, 7-(1-oxo-thiomorpholin-4-yl)-2-(2-quinolin-2-yl-ethyl)-2,3-dihydro-isoindol-1-one], the microsomal CLint at 0.5 μM in data set [1] and in data set [2] was under 100 µL/min/mg each time. In data set [3], this compound returned an IC50 of under 100 nM.

Turning to `O=C1c2c(cccc2-c2ccc(C(F)(F)F)nc2)CN1CCc1ccc2ccccc2n1` [Example 98, 2-(2-Quinolin-2-yl-ethyl)-7-(6-trifluoromethyl-pyridin-3-yl)-2,3-dihydro-isoindol-1-one], the intrinsic clearance (microsomal CLint) at 0.5 μM is under 100 µL/min/mg in data set [1] and 100 to 220 µL/min/mg in data set [2]. This compound registered an IC50 in data set [3] of 200 to 500 nM.

As to `O=C1c2c(-c3ccncc3F)ccnc2CN1CCc1cn2ccccc2n1` [compound 534, 4-(3-Fluoro-pyridin-4-yl)-6-(2-imidazo[1,2-a]pyridin-2-yl-ethyl)-6,7-dihydro-pyrrolo[3,4-b]pyridin-5-one], the microsomal CLint at 0.5 μM in data set [1] and in data set [2] was under 100 µL/min/mg each time. In addition, the IC50 in data set [3] was under 100 nM.

Turning to `Cn1nccc1-c1cccc2c1C(=O)N(CCc1cn3ccccc3n1)C2` [Example 239, 2-(2-Imidazo[1,2-a]pyridin-2-yl-ethyl)-7-(2-methyl-2H-pyrazol-3-yl)-2,3-dihydro-isoindol-1-one], the microsomal CLint at 0.5 μM in data set [1] and in data set [2] was under 100 µL/min/mg each time. In addition, the 50% inhibitory concentration (IC50) in data set [3] was in the range of 100 to 200 nM.
